Experimental data: publication PMC11882969 (Nature Communications, 2025)

Target: CB1 (rCB1) (Rattus norvegicus, UniProt P20272)
Assay: Single-point radioligand displacement screen
Format: binding
Conditions: for % 1H-CP-55,940 displacement (mean) from single point screen: 10 µM, 1 µM or 300 nM by cell colour (not visible); for rep1_displacement / rep2_displacement / rep3_displacement: Figure 1c source data; for rep1_displacement: replicate 1; for rep2_displacement: replicate 2; for rep3_displacement: replicate 3

Chain of CB1 (rCB1) (P20272 whole entry): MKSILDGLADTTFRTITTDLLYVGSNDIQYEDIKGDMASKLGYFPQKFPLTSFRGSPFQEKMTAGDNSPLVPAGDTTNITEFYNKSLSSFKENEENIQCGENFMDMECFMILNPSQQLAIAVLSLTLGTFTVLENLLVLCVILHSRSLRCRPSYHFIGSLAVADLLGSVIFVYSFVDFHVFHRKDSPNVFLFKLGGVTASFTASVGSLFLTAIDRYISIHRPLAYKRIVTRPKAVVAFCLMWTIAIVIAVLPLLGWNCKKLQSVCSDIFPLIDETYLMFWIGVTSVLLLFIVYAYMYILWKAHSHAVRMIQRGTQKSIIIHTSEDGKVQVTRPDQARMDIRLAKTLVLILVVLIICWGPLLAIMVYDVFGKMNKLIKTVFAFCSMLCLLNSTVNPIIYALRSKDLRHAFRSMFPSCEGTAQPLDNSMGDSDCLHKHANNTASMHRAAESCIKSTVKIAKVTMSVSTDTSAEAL

SMILES	% 1H-CP-55,940 displacement (mean) from single point screen [%]	rep1_displacement	rep2_displacement	rep3_displacement
Fc1ccc(C(F)(F)c2noc(-c3cnnn3-c3cccc(F)c3)n2)cc1 [compound 9217]	46.71	49.7	46.4	44.1
Cc1onc(-c2ccccc2)c1C(=O)OCc1cn2cc(Cl)ccc2n1 [compound 74872]	49.60	51.6	49.2	48
CC(Oc1ccccc1)c1noc(-c2ccc(=O)n(-c3ccc(F)cc3)n2)n1 (stereo not shown) [compound 34765]	18.38	25	13.3	16.8
Cc1ccn2cc(C(=O)N3CCc4c(F)cc(Br)cc4C3)nc2c1 [compound 35971]	13.78	9.7	11.6	20
Cn1nc(-c2nnc(C(C)(C)Oc3ccc(F)cc3)o2)c2ccccc2c1=O [compound 31486]	32.26	–	–	–
CCOc1cncc(NC(=O)c2cc(C)n(-c3cccc(Cl)c3)n2)n1 [compound 88160]	-5.87	–	–	–
Cc1ccc(OCCC(=O)N2CC3CCCN3c3ccccc32)c(C)c1 (stereo not shown) [compound 26701]	35.34	39	34.5	32.6
COC(=O)C(NC(=O)c1cc(C)n(-c2cccc(F)c2)n1)c1ccc2c(c1)CCO2 (stereo not shown) [compound 12208]	-5.83	–	–	–
COc1cc(OC)cc(-c2nc([C@H](OC)c3ccc(Br)cc3)no2)c1 [compound 13596]	47.56	46.1	49	–
COC(=O)C(OC(=O)c1cc(C)n(-c2ccc(F)cc2)n1)c1ccccc1 (stereo not shown) [compound 62406]	-3.66	–	–	–
Cc1c(C(=O)OCC2COc3ccccc3O2)cnn1Cc1ccccc1 (stereo not shown) [compound 32445]	35.36	–	–	–
COC(=O)CC(NC(=O)c1cc(C)n(-c2ccc(OC)cc2)n1)c1cccs1 (stereo not shown) [compound 90711]	7.24	–	–	–
Cc1nc(CC2CC2)oc1-c1nc(-c2ccc3c(c2)OCO3)no1 [compound 5962]	10.45	–	–	–
N#CCCn1ncc(C(=O)OCC2CSc3ccccc3O2)c1-c1ccccc1 (stereo not shown) [compound 0372]	41.18	–	–	–
COC(=O)C(OC(=O)c1cc(C)n(-c2cccc(Cl)c2)n1)c1ccsc1 (stereo not shown) [compound 75729]	29.65	32.1	28	28.8
COC(=O)C(NC(=O)c1cc(-c2cccc(F)c2)c2ccccc2c1)c1cccs1 (stereo not shown) [1486_17]	8.92	–	–	–
O=C(NCC1CSc2ccccc2O1)c1cn(Cc2ccccc2)nn1 (stereo not shown) [compound 78184]	28.43	–	–	–
CCOC(=O)C1CN(C(=O)c2cc(C)n(-c3cccc(C(F)(F)F)c3)n2)CC12CC2 (stereo not shown) [10_21]	83.57	–	–	–
Cc1c(C(=O)OCC2CSc3ccccc3S2)cnn1Cc1ccccc1 (stereo not shown) [7800_26]	69.84	–	–	–

SMILES	% 1H-CP-55,940 displacement (mean) from single point screen [%]	rep1_displacement	rep2_displacement	rep3_displacement
Cn1nc(Cc2nnc(C(C)(C)Oc3ccc(Cl)cc3)o2)c2ccccc2c1=O [0450_25]	-12.39	–	–	–
Cc1nn(CC2CC2)c(C)c1Cc1nc(Cc2ccc3c(c2)OCO3)no1 [7019_28]	36.27	–	–	–
O=C(OCc1nc2ccccc2o1)c1cnn(Cc2ccccc2Cl)c1 [compound 3652]	32.00	–	–	–
O=C(OCc1nc2ccccc2s1)c1c2c(nc3ccccc13)CCC2 [compound 47700]	27.24	29.5	33.4	18.9
Cc1cc(C(=O)NC(c2ccc(Cl)cc2)c2ccn(C)n2)nn1-c1cccc(F)c1 (stereo not shown) [compound 17429]	23.12	–	–	–
Cc1cc(C(=O)NC(c2cccnc2)C2CC2)nn1-c1cccc(C#N)c1 (stereo not shown) [compound 74836]	33.29	34.5	34.8	30.5
COC(=O)C(NC(=O)c1ccc(-c2ccccc2F)o1)c1ccsc1 (stereo not shown) [compound 07099]	3.88	–	–	–
C[C@@H](COC(=O)c1nn(C)c(=O)c2ccccc12)Oc1ccc(Cl)cc1 [0450_14]	28.77	–	–	–
COc1ccc(Cl)c(-c2cc(C(=O)N3CCOC[C@@H]3CC(C)C)on2)c1 [compound 97878]	33.55	62.5	14.5	23.7
O=C(OCC1CSc2ccccc2O1)c1ccc(Oc2cccnc2)cc1 (stereo not shown) [compound 82778]	26.16	–	–	–
O=C(OCC1CSc2ccccc2O1)c1cnn(Cc2ccccc2)c1Br (stereo not shown) [7800_27]	70.31	–	–	–
CCOC(=O)C1(NC(=O)c2cc(C)n(-c3cccc(Cl)c3)n2)CCCCC1 [compound 64801]	31.60	–	–	–
Cc1c(C(=O)OCC2CSc3ccccc3O2)cnn1-c1ccccc1 (stereo not shown) [compound 3189]	46.85	–	–	–
O=C(NCC1CSc2ccccc2O1)c1ncc(Cc2ccccc2)o1 (stereo not shown) [compound 5752]	24.02	–	–	–
O=C(OCC1CSc2ccccc2O1)c1cc(Oc2ccccc2)ccn1 (stereo not shown) [compound 50267]	15.53	–	–	–
Cc1nn(Cc2ccccc2Cl)c(C)c1C(=O)OCC1CSc2ccccc2O1 (stereo not shown) [7800_28]	55.46	–	–	–
COC(=O)C(NC(=O)c1coc(C2CCOCC2)n1)c1cccs1 (stereo not shown) [compound 19213]	1.83	–	–	–
COC(=O)C(NC(=O)c1cc(C)n(-c2ccccc2)n1)c1cccs1 (stereo not shown) [compound 59643]	4.63	–	–	–
O=C(OCC1CSc2ccccc2O1)c1csc(Cc2ccccc2)n1 (stereo not shown) [compound 86798]	2.04	–	–	–
